Experimental data: patent US6087379A, “Cyclic amine derivatives” (Sankyo Company, Limited, priority 1996, dated 2000)
Where a name gives a salt, the structure may show the parent alone.

Legend:
platelet aggregation = experiment: Test 2: Antiaggregatory Action in Rats (ex vivo platelet aggregation in citrated blood, ADP or collagen); conditions: Rattus norvegicus, oral, 4 hours before, female SD rats, induced by ADP or collagen (which one not given)
Description: Antiaggregatory Action in Rats
Groups of 4 female SD rats (Charles River Japan Inc.) were used in the experiment Test compound suspended in 5% gum arabic solution was orally administered to rats 4 hours before the experiment. Control rats received 5% gum farabic solution. Platelet aggregation was measured according to the method of P. Lumley and P. P. A. Humphrey (J. Pharmacol. Methods, 6, 153-166 (1981)) with a slight modification. Blood (5.4 ml) was collected from the abdominal aorta of anesthetized rats using 3.8% (w/v) sodium citrate solution (0.6 ml) as an anticoagulant. An aliquot of citrated blood (1.2 ml) added to the cuvette was stirred (1000 rpm) at 37° C. Two minutes later, blood (0.3 ml) was taken from the cuvette, and the number of platelets was measured by an automatic hematology analyzer (E-4000, Toa Iyo Denshi), which was designated as the pre-aggregation number of platelets. To the remaining blood (0.9 ml) in the cuvette were added 0.1 ml of 0.05 mM adenosine-5'-diphosphate (ADP) or 0.06 mg/ml collagen to induce platelet aggregation. Two minutes after the addition of ADP or 4 minutes after the addition of collagen, blood (0.3 ml) was taken from the cuvette, and the number of platelets was measured, which was designated as the post-aggregation number of platelets. Platelet aggregation (%) was determined by the following equation:
100×(pre-aggregation number of platelets-post-aggregation number of
platelets)/pre-aggregation number of platelets
Antiaggregatory action of the test compound was determined comparing platelet aggregation of test compound-treated rats to that of control rats (without administration of test compound).

male ICR mice = experiment: Test 1: Prolongation of Bleeding Time in Mice; assay type: in vivo, mouse (ICR); conditions: oral, 3 days (48, 24 and 4 hours before), ratio test compound-treated to control, cut-off 300 seconds
Description: Prolongation of Bleeding Time in Mice Groups of 10 male ICR mice (Charles River Japan Inc.) were used in the experiment. Test compound suspended in 5% gum arabic solution was orally administered for 3 days (48, 24 and 4 hours before the experiment). Each mouse was placed in a retainer, and the tail was transected at 5 mm from the tip, and then the tail (2 cm) was immersed in saline solution warmed at 37° C. Bleeding time was defined as the interval between the time of transection until bleeding stopped over a 15 seconds period. Bleeding times beyond 5 minutes were recorded as 5 minutes (300 seconds). Results were expressed as ratios of bleeding times of test compound-treated to non-treated (control) groups in which mice received 5% gum arabic solution.

Human Platelets = experiment: Test 3: Antiaggregatory Action in Human Platelets (PRP, ADP-induced aggregation); assay type: cell-based; conditions: Platelet, 37° C.; for inhibition at 10 µg/mL: 10 μg/ml; for inhibition at 30 µg/mL: 30 μg/ml
Description: Antiaggregatory Action in Human Platelets
Platelet aggregation was measured using an automatic platelet aggregometer (PAM-8C, Mebanix) by the method of G.V.R. Born (Nature, 194, 927-929 (1962)) with a slight modification. Blood was collected from the antecubital vein of healthy volunteers who had not taken any medications for 2 weeks using 3.8% sodium citrate as an anticoagulant (1/9 volume of blood). Platelet-rich plasma (PRP) was obtained by centrifugation (CR5DL, Hitachi) at 200×g for 15 minutes at room temperature. Platelet-poor plasma (PPP) was obtained by further centrifugation of the remained blood at 2000×g for 10 minutes at room temperature. The number of platelets in PRP was measured by an automatic hematology analyzer (K-1000, Toa Iyo Denshi), and adjusted to 3×10^8 /ml using PPP. PRP prepared as described above was used for the platelet aggregation experiment. PRP (0.24 ml) was added to the cuvette and set in the platelet aggregometer. After pre-incubation for 1.5 minutes at 37° C., 0.01 ml of 0.25 mM ADP were added to the cuvette to initiate platelet aggregation. Platelet aggregation was monitored for 10 minutes.
Antiaggregatory action of test compound was expressed as inhibition (%) of aggregation comparing platelet aggregation of test compound to that of control (without addition of test compound).

Row | SMILES | inhibition at 10 mg/kg (platelet aggregation) [%] | inhibition at 30 mg/kg (platelet aggregation) [%] | bleeding time extending ratio (male ICR mice; 10 mg/kg) | bleeding time extending ratio (male ICR mice; 30 mg/kg) | inhibition at 10 µg/mL (Human Platelets) [%] | inhibition at 30 µg/mL (Human Platelets) [%]
1 | CC(=O)SC1CCN(C(C(=O)C2CC2)c2ccccc2F)CC1 (stereo not drawn) [Example 1(a), 4-Acetylthio-1-(α-cyclopropylcarbonyl-2-fluorobenzyl)piperidine] | 5.7 | 23.3 | 1.06 | 2.06 |  | 
2 | Cl.O=C(C1CC1)C(c1ccccc1F)N1CCC(S)CC1 (stereo not drawn) [Example 1(b), 1-(α-Cyclopropylcarbonyl-2-fluorobenzyl)-4-mercaptopiperidine hydrochloride] |  |  |  | 1.46 | 48.6 | 70.6
3 | CCOC(=O)/C=C1\CN(C(C(=O)C2CC2)c2ccccc2F)CCC1SC(C)=O (stereo not drawn) [Example 10(a), (E)-4-Acetylthio-1-(α-cyclopropylcarbonyl-2-fluorobenzyl)-3-ethoxycarbonylmethylidenepiperidine] | 88.6 | 97.2 | > 2.75 | > 2.75 |  | 
4 | O=C(O)/C=C1/CN(C(C(=O)C2CC2)c2ccccc2F)CCC1S (stereo not drawn) [Example 12, (Z)-1-(α-Cyclopropylcarbonyl-2-fluorobenzyl)-3-carboxymethylidene-4-mercaptopiperidine trifluoroacetate] |  |  |  |  | 41.2 | 68.9
5 | CCOC(=O)/C=C1\CN(C(C(=O)OC)c2ccccc2Cl)CCC1SC(C)=O (stereo not drawn) [Example 13, (E)-4-Acetylthio-1-(2-chloro-α-methoxycarbonylbenzyl)-3-ethoxycarbonylmethylidenepiperidine] |  |  | > 2.75 | > 2.75 |  | 
6 | CC(=O)SC1CCN(C(C(=O)C2CC2)c2ccccc2F)C/C1=C\C(=O)N(C)C (stereo not drawn) [Example 15(a), (E)-4-Acetylthio-1-(α-cyclopropylcarbonyl-2-fluorobenzyl)-3-(N,N-dimethylcarbamoyl)methylidenepiperidine] | 18.6 | 95.9 | 2.53 | > 2.75 |  | 
7 | CCCC(=O)SC1CCN(C(C(=O)C2CC2)c2ccccc2F)CC1 (stereo not drawn) [Example 18, 4-Butyrylthio-1-(α-cyclopropylcarbonyl-2-fluorobenzyl)piperidine] |  | 18.3 | 1.45 | 2.57 |  | 
8 | COC(=O)C(c1ccccc1F)N1CCC(SC(=O)c2ccccc2)CC1 (stereo not drawn) [Example 28, 4-Benzoylthio-1-(2-fluoro-α-methoxycarbonylbenzyl)piperidine] |  | 39.6 | 1.24 | 2.16 |  | 
